Source: patent publication US20240308992A1 (Biopolar Youtang(Guangdong) Pharmaceutical Co., Ltd., priority 2021, published 2024)

target: T1, Drak2 (Homo sapiens, UniProt O94768); test: Drak2 activity test, ADP-Glo kinase assay (Promega); assay type: biochemical; details: inhibition of Drak2 kinase activity, 2 h room temperature, activity range classes, read-out: IC50_Drak2
T1 sequence (O94768 1-372): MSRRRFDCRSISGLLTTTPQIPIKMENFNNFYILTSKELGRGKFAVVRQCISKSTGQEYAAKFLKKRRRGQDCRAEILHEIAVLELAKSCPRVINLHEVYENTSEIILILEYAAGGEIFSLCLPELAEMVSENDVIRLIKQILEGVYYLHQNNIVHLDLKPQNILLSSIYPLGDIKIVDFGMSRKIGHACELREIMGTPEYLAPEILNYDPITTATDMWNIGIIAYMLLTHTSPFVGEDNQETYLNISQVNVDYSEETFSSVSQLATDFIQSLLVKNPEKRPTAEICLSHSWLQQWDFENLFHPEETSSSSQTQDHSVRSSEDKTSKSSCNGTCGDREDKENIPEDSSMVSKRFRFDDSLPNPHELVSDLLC

SMILES | IC50
COc1cc(-c2cncc(-c3cc(NC(=O)CC4CC(C(C)=O)C4(C)C)cs3)n2)ccc1C(=O)N(C)C1CCN(C)CC1 (centres unmarked) [Example B87, 4-(6-(4-(2-(3-acetyl-2,2-dimethylcyclobutyl)acetamido)thiophen-2-yl)pyrazin-2-yl)-2-methoxy-N-methyl-N-(1-methylpiperidin-4-yl)benzamide] | 0.101 to 1 µM
COc1cc(-c2cncc(-c3cc(NC(=O)C(N)C4CCC4)cs3)n2)ccc1C(=O)N(C)C1CCN(C)CC1 (centres unmarked) [Example B88, 4-(6-(4-(2-amino-2-cyclobutylacetamido)thiophen-2-yl)pyrazin-2-yl)-2-methoxy-N-methyl-N-(1-methylpiperidin-4-yl)benzamide] | 0.101 to 1 µM
COc1cc(-c2cncc(-c3cc(NC(=O)CC4CC(C(C)=O)C4)cs3)n2)ccc1C(=O)N(C)C1CCN(C)CC1 (centres unmarked) [Example B91, 4-(6-(4-(2-(3-acetylcyclobutyl)acetamido)thiophen-2-yl)pyrazin-2-yl)-2-methoxy-N-methyl-N-(1-methylpiperidin-4-yl)benzamide] | 0.101 to 1 µM
COc1cc(-c2cncc(-c3cc(NC(=O)CC4CC(C(C)(F)F)C4)cs3)n2)ccc1C(=O)N(C)C1CCN(C)CC1 (centres unmarked) [Example B92, 4-(6-(4-(2-(3-(1,1-difluoroethyl)cyclobutyl)acetamido)thiophen-2-yl)pyrazin-2-yl)-2-methoxy-N-methyl-N-(1-methylpiperidin-4-yl)benzamide] | 0.011 to 0.1 µM
COc1cc(-c2cncc(-c3cc(NC(=O)CC4(N)CCC4)cs3)n2)ccc1C(=O)N(C)C1CCN(C)CC1 [Example B94, 4-(6-(4-(2-(1-aminocyclobutyl)acetamido)thiophen-2-yl)pyrazin-2-yl)-2-methoxy-N-methyl-N-(1-methylpiperidin-4-yl)benzamide] | 0.101 to 1 µM
COc1cc(-c2cncc(-c3cc(NC(=O)CC4CCC4)cs3)n2)ccc1C(=O)N(C)C1CC2(C1)CN(C1CC1)C2 [Example B97, 4-(6-(4-(2-cyclobutylacetamido)thiophen-2-yl)pyrazin-2-yl)-N-(2-cyclopropyl-2-azaspiro[3.3]heptan-6-yl)-2-methoxy-N-methylbenzamide] | 0.011 to 0.1 µM
COc1cc(-c2cncc(-c3cc(NC(=O)CC4CC4)cs3)n2)ccc1S(=O)(=O)N(C)C1CCN(C)CC1 [Example B103, 2-cyclopropyl-N-(5-(6-(3-methoxy-4-(N-methyl-N-(1-methylpiperidin-4-yl)sulfamoyl)phenyl)pyrazin-2-yl)thiophen-3-yl)acetamide] | 0.011 to 0.1 µM
COc1ccc(-c2cncc(NC3CCC(N)CC3)n2)cc1OC (centres unmarked) [Example D1, N^1-(6-(3,4-dimethoxyphenyl)pyrazin-2-yl)cyclohexane-1,4-diamine] | > 10 µM
COc1ccc(-c2cncc(NC3CCC(NC(=O)C4CCC4)CC3)n2)cc1OC (centres unmarked) [Example D2, N-(4-((6-(3,4-dimethoxyphenyl)pyrazin-2-yl)amino)cyclohexyl)cyclobutanecarboxamide] | > 10 µM
COc1ccc(-c2cncc(-c3nc(NC(=O)OC(C)(C)C)cs3)n2)cc1OC [Example D3, tert-butyl (2-(6-(3,4-dimethoxyphenyl)pyrazin-2-yl)thiazol-4-yl)carbamate] | > 10 µM
CCN(CC)C(=O)Nc1csc(-c2cncc(-c3ccc(OC)c(OC)c3)n2)n1 [Example D4, 3-(2-(6-(3,4-dimethoxyphenyl)pyrazin-2-yl)thiazol-4-yl)-1,1-diethylurea] | 1 to 10 µM
CCCCC(=O)Nc1csc(-c2cncc(N3CCN(S(C)(=O)=O)CC3)n2)c1 [Example D6, N-(5-(6-(4-(methylsulfonyl)piperazin-1-yl)pyrazin-2-yl)thiophen-3-yl)pentanamide] | 0.101 to 1 µM
CN1CCC(C(=O)N2CCOc3cc(-c4cncc(-c5cc(NC(=O)CC6CCC6)cs5)n4)ccc32)CC1 [Example E1, 2-cyclobutyl-N-(5-(6-(4-(1-methylpiperidine-4-carbonyl)-3,4-dihydro-2H-benzo[b][1,4]oxazin-7-yl)pyrazin-2-yl)thiophen-3-yl)acetamide] | 0.011 to 0.1 µM

Other lines, results leading:

IC50 | SMILES
0.101 to 1 µM | COc1cc(-c2cncc(-c3cc(NC(=O)CC4COC4)cs3)n2)ccc1C(=O)N(C)C1CCN(C)CC1 [Example B89, 2-methoxy-N-methyl-N-(1-methylpiperidin-4-yl)-4-(6-(4-(2-(oxetan-3-yl)acetamido)thiophen-2-yl)pyrazin-2-yl)benzamide]
< 0.01 µM | COc1cc(-c2cncc(-c3cc(NC(=O)CC4CC(F)C4)cs3)n2)ccc1C(=O)N(C)C1CCN(C)CC1 (centres unmarked) [Example B90, 4-(6-(4-(2-(3-fluorocyclobutyl)acetamido)thiophen-2-yl)pyrazin-2-yl)-2-methoxy-N-methyl-N-(1-methylpiperidin-4-yl)benzamide]
0.011 to 0.1 µM | COc1cc(-c2cncc(-c3cc(NC(=O)CC4CCC4)cs3)n2)ccc1C(=O)N(C)C1CC2(C1)CN(C)C2 [Example B93, 4-(6-(4-(2-cyclobutylacetamido)thiophen-2-yl)pyrazin-2-yl)-2-methoxy-N-methyl-N-(2-methyl-2-azaspiro[3.3]heptan-6-yl)benzamide]
0.011 to 0.1 µM | COc1cc(-c2cncc(-c3cc(NC(=O)C(C)C4CCC4)cs3)n2)ccc1C(=O)N(C)C1CCN(C)CC1 (centres unmarked) [Example B95, 4-(6-(4-(2-cyclobutylpropanamido)thiophen-2-yl)pyrazin-2-yl)-2-methoxy-N-methyl-N-(1-methylpiperidin-4-yl)benzamide]
0.011 to 0.1 µM | COc1cc(-c2cncc(-c3cc(NC(=O)CC4CCC4)cs3)n2)ccc1C(=O)N(C)C1CCN(C2CC2)CC1 [Example B96, 4-(6-(4-(2-cyclobutylacetamido)thiophen-2-yl)pyrazin-2-yl)-N-(1-cyclopropylpiperidin-4-yl)-2-methoxy-N-methylbenzamide]
< 0.01 µM | COc1cc(-c2cncc(-c3cc(NC(=O)CC4CCC4)cs3)n2)ccc1C(=O)NO [Example B98, 4-(6-(4-(2-cyclobutylacetamido)thiophen-2-yl)pyrazin-2-yl)-N-hydroxy-2-methoxybenzamide]
< 0.01 µM | COc1cc(-c2cncc(-c3cc(NC(=O)CC4CC(F)C4)cs3)n2)ccc1C(=O)N(C)C1CC2(C1)CN(C)C2 (centres unmarked) [Example B99, 4-(6-(4-(2-(3-fluorocyclobutyl)acetamido)thiophen-2-yl)pyrazin-2-yl)-2-methoxy-N-methyl-N-(2-methyl-2-azaspiro[3.3]heptan-6-yl)benzamide]
0.011 to 0.1 µM | COc1cc(-c2cncc(-c3cc(NC(=O)C(C)(C)C4CCC4)cs3)n2)ccc1C(=O)N(C)C1CCN(C)CC1 [Example B100, 4-(6-(4-(2-cyclobutyl-2-methylpropanamido)thiophen-2-yl)pyrazin-2-yl)-2-methoxy-N-methyl-N-(1-methylpiperidin-4-yl)benzamide]
0.011 to 0.1 µM | COc1cc(-c2cncc(-c3cc(NC(=O)CC4CCC4)cs3)n2)ccc1S(=O)(=O)N(C)CCN(C)C [Example B101, 2-cyclobutyl-N-(5-(6-(4-(N-(2-(dimethylamino)ethyl)-N-methylsulfamoyl)-3-methoxyphenyl)pyrazin-2-yl)thiophen-3-yl)acetamide]
0.011 to 0.1 µM | COc1cc(-c2cncc(-c3cc(NC(=O)CC4CC4)cs3)n2)ccc1S(=O)(=O)N(C)CCN(C)C [Example B102, 2-cyclopropyl-N-(5-(6-(4-(N-(2-(dimethylamino)ethyl)-N-methylsulfamoyl)-3-methoxyphenyl)pyrazin-2-yl)thiophen-3-yl)acetamide]
0.011 to 0.1 µM | COc1cc(-c2cncc(-c3cc(NC(=O)CC4CCC4)cs3)n2)ccc1S(=O)(=O)N(C)C1CCN(C)CC1 [Example B104, 2-cyclobutyl-N-(5-(6-(3-methoxy-4-(N-methyl-N-(1-methylpiperidin-4-yl)sulfamoyl)phenyl)pyrazin-2-yl)thiophen-3-yl)acetamide]
0.011 to 0.1 µM | COc1cc(-c2cncc(-c3cc(NC(=O)CC4CCC4)cs3)n2)ccc1S(=O)(=O)N1CCOCC1 [Example B105, 2-cyclobutyl-N-(5-(6-(3-methoxy-4-(morpholinosulfonyl)phenyl)pyrazin-2-yl)thiophen-3-yl)acetamide]
> 10 µM | COc1ccc(-c2cncc(-c3cc(NC(=O)C4CCC4)cs3)c2C(N)=O)cc1OC [Example C1, 3-(4-(cyclobutanecarboxamido)thiophen-2-yl)-5-(3,4-dimethoxyphenyl)isonicotinamide]
1 to 10 µM | COc1ccc(-c2cncc(-c3cc(NC(=O)C4CCC4)cs3)c2C#N)cc1OC [Example C2, N-(5-(4-cyano-5-(3,4-dimethoxyphenyl)pyridin-3-yl)thiophen-3-yl)cyclobutanecarboxamide]
1 to 10 µM | CCCCC(=O)Nc1csc(-c2cncc(-c3ccc(OC)c(OC)c3)c2C(N)=O)c1 [Example C3, 3-(3,4-dimethoxyphenyl)-5-(4-pentanamidothiophen-2-yl)isonicotinamide]
1 to 10 µM | CCCCC(=O)Nc1csc(-c2cncc(-c3ccc(OC)c(OC)c3)c2C#N)c1 [Example C4, N-(5-(4-cyano-5-(3,4-dimethoxyphenyl)pyridin-3-yl)thiophen-3-yl)pentanamide]
1 to 10 µM | CCCCC(=O)Nc1csc(-c2ccnc(-c3ccc(C(=O)N(C)C4CCN(C)CC4)c(OC)c3)n2)c1 [Example D5, 2-methoxy-N-methyl-N-(1-methylpiperidin-4-yl)-4-(4-(4-pentanamidothiophen-2-yl)pyrimidin-2-yl)benzamide]
1 to 10 µM | CCCCC(=O)Nc1csc(-c2cncc(C3CCN(S(C)(=O)=O)CC3)n2)c1 [Example D7, N-(5-(6-(1-(methylsulfonyl)piperidin-4-yl)pyrazin-2-yl)thiophen-3-yl)pentanamide]
1 to 10 µM | CCCCC(=O)Nc1csc(-c2cncc(C3=CCN(S(C)(=O)=O)CC3)n2)c1 [Example D8, N-(5-(6-(1-(methylsulfonyl)-1,2,3,6-tetrahydropyridin-4-yl)pyrazin-2-yl)thiophen-3-yl)pentanamide]
